From article PMC8609006, “Design of modular autoproteolytic gene switches responsive to anti-coronavirus drug candidates” (Nature Communications, 2021) come the findings set out here.

In this assay the target is T1, SARS-CoV-2 Mpro (Mpro(S2), 3CLpro) (Severe acute respiratory syndrome coronavirus 2, UniProt P0DTD1).
T1 construct: gene rep; mature Mpro (nsp5) cut from polyprotein pp1a/pp1ab, human codon-optimized, fused N-terminally to TetR-MproCSOPT-VP64 (pNF167), expressed in HEK293T; TAGS plasmids OK425851-OK425853 (not assigned singly)
In kind it is cell-based.

Turning to `CC(C)(C)NC(=O)N[C@H](C(=O)N1C[C@H]2[C@@H]([C@H]1C(=O)NC(CC1CCC1)C(=O)C(N)=O)C2(C)C)C(C)(C)C` (stereo partly shown) [Boceprevir], the “Mpro-TAGS nanoLuc gain-of-signal reporter in HEK293T cells, 24 h” value was “GRL-0496 and Boceprevir only slightly induced gene expression”.
